Source: US20170313974A1, “Modulation of Tissue Fatty Acid Composition of a Host by Human Gut Bacteria” (University College Cork, National University of Ireland, priority 2007, published 2017)
Marks after values point to notes of the source that are not given here.

What was measured:
BALB/c mice = assay: Tissue fatty acid composition, BALB/c α-linolenic acid feeding trial (8 weeks); assay type: in vivo
Experimental: Female BALB/c mice were purchased from Harlan ltd. (Briester, Oxon, UK) at 8 weeks of age and fed a normal diet for 1 week to stabilize all metabolic conditions. […] Mice were maintained at 4 per cage and exposed to a 12-h light:dark cycle at a constant temperature of 25° C. The mice were held at the Biological Services Unit in University College Cork. The animal experimentation was performed according to the guidelines for the care and use of laboratory animals approved by the Department of Health and Children.
(§1) Animals were fed standard mouse chow ad libitum with free access to water at all times. […] Following 8 weeks on experimental diets, the animals were sacrificed by cervical dislocation. Liver, adipose tissue and brain were removed from the carcasses, blotted dry on filter paper, weighed and frozen in liquid nitrogen. All samples were stored at −80° C. until processed.
Lipids were extracted according to the method by O'Fallon et al. (20). Briefly, samples were cut into 1.5-mm rectangular strips and placed into a screw-cap Pyrex culture tube together with 0.7 ml of 10 N KOH in water and 5.3 ml of MeOH. The tubes were incubated in a 55° C. water bath for 1.5 h with vigorous hand-shaking every 20 min. After cooling below room temperature, 0.58 ml of 24 N H2SO4 in water was added. The tubes were mixed by inversion and with precipitated K2SO4 present incubated again in 55° C. for 1.5 h with hand-shaking every 20 min. FAME were recovered by addition of 3 ml hexane and vortex mixed and separated by GLC (Varian 3400, Varian, Walnut Creek, Calif. USA fitted with a flame ionization detector) using a Chrompack CP Sil 88 column (Chrompack, Middleton, The Netherlands, 100 m×0.25 mm i.d., 0.20 μm film thickness) and He as carrier gas. The column oven was initially programmed at 80° C. for 8 min, and increased 8.5° C./min to a final column temperature of 200° C. The injection volume was 0.6 μl, with automatic sample injection on a SPI 1093 splitless on-column temperature programmable injector. Data were recorded and analysed on a Minichrom PC system (VG Data System, Manchester, U.K.). Peaks were identified with reference to retention times of fatty acids in a standard mixture. All fatty acid results are shown as mean±standard error mean (SEM) g/100 g FAME.

[1] = Body weight gain, BALB/c α-linolenic acid trial; assay type: in vivo, BALB/c mice; details: 8 week trial period
Experimental: as §1

[2] = adipose tissue, 8 weeks, SEM, n = 8

With `CC/C=C\C/C=C\C/C=C\CCCCCCCC(=O)O` [B, α-linolenic acid] the “C16:0 palmitic acid, adipose tissue” value (BALB/c mice; [2]) was 28.73 ± 2.16^c g/100 g FAME, the “C16:1c9 palmitoleic acid, adipose tissue” value (BALB/c mice; [2]) was 6.07 ± 2.01 g/100 g FAME and the “C18:0 stearic acid, adipose tissue” value (BALB/c mice; [2]) was 8.00 ± 2.33 g/100 g FAME. For the same compound, the “C18:1c9 oleic acid, adipose tissue” value (BALB/c mice; [2]) was 14.83 ± 3.01 g/100 g FAME, the “C18:2n-6 linoleic acid, adipose tissue” value (BALB/c mice; [2]) was 18.80 ± 0.81^c g/100 g FAME and the “C18:3n-3 linolenic acid, adipose tissue” value (BALB/c mice; [2]) was 7.35 ± 2.15^c,d g/100 g FAME. For the same compound, the “C18:3n-6 γ-linolenic acid, adipose tissue” value (BALB/c mice; [2]) was 0.13 ± 0.03 g/100 g FAME, the “C18:4n-3 stearidonic acid, adipose tissue” value (BALB/c mice; [2]) was 0.12 ± 0.03 g/100 g FAME and the “C20:3n-6 dihomo-γ-linolenic acid, adipose tissue” value (BALB/c mice; [2]) was 0.30 ± 0.09 g/100 g FAME. The “C20:4n-6 arachidonic acid, adipose tissue” value (BALB/c mice; [2]) was 5.27 ± 2.04^c,d g/100 g FAME, the “C20:5n-3 eicosapentaenoic acid, adipose tissue” value (BALB/c mice; [2]) was 2.37 ± 0.76^c,d g/100 g FAME and the “C22:5n-3 docosapentaenoic acid, adipose tissue” value (BALB/c mice; [2]) was 0.55 ± 0.14^c,d g/100 g FAME. The “C22:6n-3 docosahexaenoic acid, adipose tissue” value (BALB/c mice; [2]) was 1.17 ± 0.36 g/100 g FAME, the “n-6/n-3, adipose tissue” value (BALB/c mice; [2]) was 2.15 ± 0.15^c,d and the “C16:0, brain” value (BALB/c mice; brain, 8 weeks, SEM, n = 8) was 32.38 ± 0.44^c g/100 g FAME. The “C16:1c9, brain” value (BALB/c mice; brain, 8 weeks, SEM, n = 8) was 0.94 ± 0.03^a,c,d g/100 g FAME, the “C18:0, brain” value (BALB/c mice; brain, 8 weeks, SEM, n = 8) was 19.87 ± 0.14^a g/100 g FAME and the “C18:1c9, brain” value (BALB/c mice; brain, 8 weeks, SEM, n = 8) was 17.61 ± 0.24^ g/100 g FAME. The “C18:2n-6, brain” value (BALB/c mice; brain, 8 weeks, SEM, n = 8) was 1.54 ± 0.10^a,c,d g/100 g FAME, the “C20:4n-6, brain” value (BALB/c mice; brain, 8 weeks, SEM, n = 8) was 6.88 ± 0.12^c,d g/100 g FAME and the “C20:5n-3, brain” value (BALB/c mice; brain, 8 weeks, SEM, n = 8) was 0.15 ± 0.01^c,d g/100 g FAME. The “C22:5n-3, brain” value (BALB/c mice; brain, 8 weeks, SEM, n = 8) was 0.24 ± 0.01^c g/100 g FAME, the “C22:6n-3, brain” value (BALB/c mice; brain, 8 weeks, SEM, n = 8) was 8.87 ± 0.30^a g/100 g FAME and the “n-6/n-3, brain” value (BALB/c mice; brain, 8 weeks, SEM, n = 8) was 0.89 ± 0.03^a. The “C18:3n-3, brain” value (BALB/c mice; brain, 8 weeks, SEM, n = 8, ND = not detected) was 0.18 ± 0.02^a,c,d g/100 g FAME, the “higher concentrations of α-linolenic acid and EPA in liver and adipose tissue” value (BALB/c mice; compared with group C and group D, p<0.001) was 10 fold and the “arachidonic acid/EPA ratio in adipose tissue, fold lower” value (BALB/c mice; compared with group D) was ~20 fold. For the same compound, the “arachidonic acid/EPA ratio in liver, fold lower” value (BALB/c mice; compared with group D) was “approximately 30 fold”, the “C16:0 palmitic acid, liver” value (BALB/c mice; liver, 8 weeks, SEM, n = 8) was 23.89 ± 0.71^c,d g/100 g FAME and the “C16:1c9 palmitoleic acid, liver” value (BALB/c mice; liver, 8 weeks, SEM, n = 8) was 2.07 ± 0.18^a,d g/100 g FAME. For the same compound, the “C18:0 stearic acid, liver” value (BALB/c mice; liver, 8 weeks, SEM, n = 8) was 12.36 ± 0.44^a,d g/100 g FAME, the “C18:1c9 oleic acid, liver” value (BALB/c mice; liver, 8 weeks, SEM, n = 8) was 10.16 ± 0.62^c,d g/100 g FAME and the “C18:2n-6 linoleic acid, liver” value (BALB/c mice; liver, 8 weeks, SEM, n = 8) was 18.32 ± 0.21^d g/100 g FAME. For the same compound, the “C18:3n-3 linolenic acid, liver” value (BALB/c mice; liver, 8 weeks, SEM, n = 8) was 9.47 ± 0.64^c,d g/100 g FAME, the “C18:3n-6 γ-linolenic acid, liver” value (BALB/c mice; liver, 8 weeks, SEM, n = 8) was 0.17 ± 0.01^c,d g/100 g FAME and the “C18:4n-3 stearidonic acid, liver” value (BALB/c mice; liver, 8 weeks, SEM, n = 8) was 0.16 ± 0.01^c,d g/100 g FAME. For the same compound, the “C20:3n-6 dihomo-γ-linolenic acid, liver” value (BALB/c mice; liver, 8 weeks, SEM, n = 8) was 0.61 ± 0.02^a g/100 g FAME, the “C20:4n-6 arachidonic acid, liver” value (BALB/c mice; liver, 8 weeks, SEM, n = 8) was 5.57 ± 0.14^a,c,d g/100 g FAME and the “C20:5n-3 eicosapentaenoic acid, liver” value (BALB/c mice; liver, 8 weeks, SEM, n = 8) was 3.07 ± 0.12^a,c,d g/100 g FAME. For the same compound, the “C22:5n-3 docosapentaenoic acid, liver” value (BALB/c mice; liver, 8 weeks, SEM, n = 8) was 0.94 ± 0.05^c,d g/100 g FAME, the “C22:6n-3 docosahexaenoic acid, liver” value (BALB/c mice; liver, 8 weeks, SEM, n = 8) was 5.66 ± 0.28^d g/100 g FAME and the “n-6/n-3, liver” value (BALB/c mice; liver, 8 weeks, SEM, n = 8) was 1.30 ± 0.07^c,d. The body weight gain [1] was “did not significantly influence”.
